Source: patent US20160045505A1, “COMPOUNDS AND COMPOSITIONS FOR THE TREATMENT OF PARASITIC DISEASES” (NOVARTIS AG, priority 2013, published 2016)
Like-named read-outs stand apart in the source and are kept apart here.

Key:
[1] = tested on: Trypanosoma brucei Lister 427 strain, bloodstream form; assay: Assay for proliferation of kinetoplastid parasite Trypanosoma brucei (Cell Titer Glo, 48 hours); type: cell-based; settings: Trypanosoma brucei, read-out: T. brucei EC50
Summary of the method: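 Bloodstream-form T. brucei Lister 427 in HMI-9 medium was exposed to compound (DMSO vehicle) for 48 hours at 37° C, 5% CO2. Parasite growth was read as ATP by CellTiter-Glo luminescence, with EC50 calculated from percent inhibition.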

[2] = tested on: Trypanosoma cruzi amastigotes (Tulahuen strain expressing Lac-Z) cultured in 3T3 fibroblast cells; assay: microbe, parasite or virus in culture; type: cell-based; settings: Trypanosoma cruzi, TULAHUEN, Fibroblast, T. cruzi amastigotes in 3T3 fibroblast cells, read-out: T cruzi EC50
[3] = tested on: L. donovani HU3 strain in mouse peritoneal macrophages; assay: Assay for proliferation of Leishmania parasites in infected mouse peritoneal macrophages (SybrGreen staining, high-content imaging, 5 days); type: cell-based, Leishmania donovani; settings: Leishmania donovani, Peritoneal macrophage, L. donovani in mouse peritoneal macrophages, read-out: L. donovani Macrophage EC50
[4] = tested on: Leishmania donovani axenic amastigote parasites; assay: Leishmania donovani axenic amastigote proliferation assay (Cell TiterGlo luminescence, 2 day incubation); type: cell-based; settings: Leishmania donovani, read-out: L. donovani amastigotes EC50
[5] = T. brucei Lister 427 bloodstream form, inhibition of proliferation
[6] = axenic amastigotes, inhibition of proliferation
[7] = T. brucei Lister 427 bloodstream form

Row | Structure (SMILES) | EC50 [1, 5] | EC50 ([2]; inhibition of proliferation) | EC50 ([3]; inhibition of proliferation) | EC50 [4, 6] | EC50 [1, 7] | EC50 [2] | EC50 [3] | EC50 ([4]; L. donovani axenic amastigotes) | EC50 [1]
1 | Cc1nc(C)c(C(=O)Nc2ccc(F)c(-c3cn4cc(NC(=O)C5(C)CCCO5)cnc4n3)c2)o1 (stereo not shown) [Compound 193] | 201 nM | 1090 nM | 717 nM | 339 nM |  |  |  |  | 
2 | O=C(Nc1ccc(F)c(-c2cn3cc(-c4ccccn4)cnc3n2)c1)N1CC[C@@H](F)C1 [Compound 407] |  |  |  |  | 4 nM | 14 nM | 14 nM | 9 nM | 
3 | CC(C)OC(=O)Nc1cnc2nc(-c3cc(Nc4nccc5ccoc45)ccc3F)cn2c1 [Compound 497] |  |  |  |  | 496 nM | 112 nM | 1280 nM | 641 nM | 
4 | Cc1nc(C)c(C(=O)Nc2ccc(F)c(-c3cn4cc(NC(=O)C5CCN(C(C)C)CC5)cnc4n3)c2)o1 [Compound 194] | 29800 nM | > 20000 nM | > 50000 nM | > 25000 nM |  |  |  |  | 
5 | Cc1nc(C)c(C(=O)Nc2ccc(F)c(-c3cn4cc(-c5ccncc5F)cnc4n3)c2)o1 [Compound 444] |  |  |  |  | 25 nM | 50 nM | 183 nM | 86 nM | 
6 | CC(C)(C)OC(=O)N[C@H]1CC[C@H](CNc2cnc3nc(-c4cc(NC(=O)N5CCCC5)ccc4F)cn3c2)CC1 [Compound 477] |  |  |  |  | 55 nM | 386 nM | 425 nM | 751 nM | 
7 | O=C(Nc1ccc(F)c(-c2cn3cc(F)cnc3n2)c1)N1CC[C@@H](F)C1 [Compound 234] | 151 nM | 155 nM | 741 nM | 219 nM |  |  |  |  | 
8 | Cc1n[nH]c(C(=O)Nc2cnc3nc(-c4cc(NC(=O)c5oc(C)nc5C)ccc4F)cn3c2)n1 [Compound 171] | 1410 nM | > 20000 nM | > 50000 nM | 1540 nM |  |  |  |  | 
9 | O=C(Nc1ccc(F)c(-c2cn3cc(C4=CCOCC4)cnc3n2)c1)N1CCC1 [Compound 322] | 20 nM | 76 nM | 157 nM | 43 nM |  |  |  |  | 
10 | Cc1nc(C)c(C(=O)Nc2ccc(F)c(-c3cn4cc(F)cnc4n3)c2)o1 [Compound 199] | 1120 nM | 1060 nM | 6440 nM | 878 nM |  |  |  |  | 
11 | O=C(Nc1ccc(F)c(-c2cn3cc(-c4ccccc4)cnc3n2)c1)N1CC(F)C1 [Compound 317, 3-fluoro-N-(4-fluoro-3-(6-phenylimidazo[1,2-a]pyrimidin-2-yl)phenyl)azetidine-1-carboxamide] | 12 nM | 12 nM | 38 nM | 14 nM |  |  |  |  | 
12 | O=C(Nc1ccc(F)c(-c2cn3cc(F)cnc3n2)c1)N1CCC1 [Compound 232] | 203 nM | 384 nM | 1650 nM | 381 nM |  |  |  |  | 
13 | Cc1nc(C)c(C(=O)Nc2ccc(F)c(-c3cn4cc(C5=CCCCO5)cnc4n3)c2)o1 [Compound 373] |  |  |  |  | 44 nM | 84 nM | 134 nM | 115 nM | 
14 | COC1CCC(C(=O)Nc2ccc(F)c(-c3cn4cc(C5CC5)cnc4n3)c2)CC1 (stereo not shown) [Compound 597] |  |  |  |  | 31400 nM | 16000 nM | 17100 nM | 24100 nM | 
15 | Cc1nc(C)c(C(=O)Nc2ccc(F)c(-c3cn4cc(-c5cccc(C(N)=O)n5)cnc4n3)c2)o1 [Compound 433] |  |  |  |  | 494 nM | > 20000 nM | > 50000 nM | 1810 nM | 
16 | O=C(Nc1cnc2nc(-c3cc(NC(=O)N4CCCC4)ccc3F)cn2c1)[C@@H]1CNCCO1 [Compound 130] | 4660 nM | 7120 nM | 26600 nM | 13900 nM |  |  |  |  | 
17 | CC(C)OC(=O)Nc1cnc2nc(-c3cc(NC(=O)C(C)N)ccc3F)cn2c1 (stereo not shown) [Compound 87] | > 50000 nM | > 20000 nM | > 43700 nM | > 25000 nM |  |  |  |  | 
18 | CC(C)OC(=O)Nc1cnc2nc(-c3cc(Nc4ccccn4)ccc3F)cn2c1 [Compound 484, isopropyl (2-(2-fluoro-5-(pyridin-2-ylamino)phenyl)imidazo[1,2-a]pyrimidin-6-yl)carbamate] |  |  |  |  | 1360 nM | 361 nM | 9110 nM | 1480 nM | 
19 | Cc1ncc(C(=O)Nc2ccc(F)c(-c3cn4cc(C5CCOCC5)cnc4n3)c2)o1 [Compound 424] |  |  |  |  | 54 nM | 118 nM | 164 nM | 56 nM | 
20 | CC(C)OC(=O)Nc1cnc2nc(-c3cc(NC(=O)c4ccnn4C)ccc3F)cn2c1 [Compound 74] | 490 nM | 608 nM | 3890 nM | 608 nM |  |  |  |  | 
21 | CC1(C(=O)Nc2cnc3nc(-c4cc(NC(=O)N5CCCC5)ccc4F)cn3c2)CCCO1 (stereo not shown) [Compound 127] | 74 nM | 1980 nM | 2120 nM | 561 nM |  |  |  |  | 
22 | Cc1nc(C)c(C(=O)Nc2ccc(F)c(-c3cn4cc(OCC5CC5)cnc4n3)c2)o1 [Compound 610] |  |  |  |  | 150 nM | 109 nM | 269 nM | 121 nM | 

Row | Structure (SMILES) | EC50 [1, 5] | EC50 ([2]; inhibition of proliferation) | EC50 ([3]; inhibition of proliferation) | EC50 [4, 6] | EC50 [1, 7] | EC50 [2] | EC50 [3] | EC50 ([4]; L. donovani axenic amastigotes) | EC50 [1]
23 | CC(C)OC(=O)Nc1cnc2nc(-c3cc(Nc4ncccc4OC(F)(F)F)ccc3F)cn2c1 [Compound 487] |  |  |  |  | > 50000 nM | > 16600 nM | > 50000 nM | > 25000 nM | 
24 | CC(C)OC(=O)Nc1cnc2nc(-c3cc(Nc4ncccc4C(F)(F)F)ccc3F)cn2c1 [Compound 485] |  |  |  |  | > 50000 nM | 1970 nM | 11500 nM | > 25000 nM | 
25 | COCC(=O)Nc1ccc(F)c(-c2cn3cc(NC(=O)OC(C)C)cnc3n2)c1 [Compound 106] | 2200 nM | 3450 nM | 24800 nM | 2740 nM |  |  |  |  | 
26 | Cc1nc(C)c(C(=O)Nc2cnc3nc(-c4cc(NC(=O)N5CCCC5)ccc4F)cn3c2)o1 [Compound 123] | 414 nM | > 20000 nM | > 50000 nM | 423 nM |  |  |  |  | 
27 | Cc1ncc(C(=O)Nc2ccc(F)c(-c3cn4cc(C(C)C)cnc4n3)c2)o1 [Compound 413] |  |  |  |  | 39 nM | 14 nM | 54 nM | 26 nM | 
28 | COc1cnc2nc(-c3cc(NC(=O)c4oc(C)nc4C)ccc3F)cn2c1 [Compound 607] |  |  |  |  | 1040 nM | 437 nM | 443 nM | 705 nM | 
29 | O=C(Nc1ccc(F)c(-c2cn3cc(C4CC4)cnc3n2)c1)C1COCCO1 (stereo not shown) [Compound 600] |  |  |  |  | 1780 nM | 1750 nM | > 50000 nM | 1460 nM | 
30 | CC(C)c1cnc2nc(-c3cc(NC(=O)N4CC(F)C4)ccc3F)cn2c1 [Compound 415] |  |  |  |  | 12 nM | 44 nM | 114 nM | 28 nM | 
31 | CC(C)OC(=O)Nc1ccc(F)c(-c2cn3cc(-c4ccccn4)cnc3n2)c1 [Compound 314] | 51 nM | 15 nM | 95 nM | 46 nM |  |  |  |  | 
32 | Cc1nc(C)c(C(=O)Nc2ccc(F)c(-c3cn4cc(C5=CCCN(C)C5)cnc4n3)c2)o1 [Compound 375] |  |  |  |  | 135 nM | 303 nM | 499 nM | 4300 nM | 
33 | O=C(Nc1ccc(F)c(-c2cn3cc(Cl)cnc3n2)c1)N1CC[C@@H](F)C1 [Compound 236] | 36 nM | 98 nM | 434 nM | 95 nM |  |  |  |  | 
34 | CC(C)OC(=O)Nc1cnc2nc(-c3cc(NC(=O)C4CC4)ccc3Cl)cn2c1 [Compound 245] | 1400 nM | 1130 nM | 2030 nM | 1690 nM |  |  |  |  | 
35 | O=C(Nc1ccc(F)c(-c2cn3cc(C4=CCOCC4)cnc3n2)c1)N1CC(F)C1 [Compound 318] | 19 nM | 146 nM | 132 nM | 31 nM |  |  |  |  | 
36 | CC(C)OC(=O)Nc1cnc2nc(-c3cc(NC(=O)N4CCC(N(C)C)C4)ccc3Cl)cn2c1 (stereo not shown) [Compound 275] | 34700 nM | 11700 nM | 17100 nM | > 25000 nM |  |  |  |  | 
37 | Cc1nc(C)c(C(=O)Nc2ccc(F)c(-c3cn4cc(NC(=O)OC5(C)CC5)cnc4n3)c2)o1 [Compound 312] | 54 nM | 441 nM | 139 nM | 120 nM |  |  |  |  | 
38 | Cc1nc(C)c(C(=O)Nc2ccc(F)c(-c3cn4cc(-c5ccc(S(C)(=O)=O)cc5F)cnc4n3)c2)o1 [Compound 362] | 345 nM | > 20000 nM | > 34400 nM | 403 nM |  |  |  |  | 
39 | CNc1ccc(-c2cnc3nc(-c4cc(NC(=O)c5oc(C)nc5C)ccc4F)cn3c2)nc1 [Compound 432] |  |  |  |  | 18 nM | 21 nM | 33 nM | 12 nM | 
40 | Cc1ncc(C(=O)Nc2ccc(F)c(-c3cn4cc(N(C)C)cnc4n3)c2)o1 [Compound 467] |  |  |  |  | 166 nM | 129 nM | 266 nM | 147 nM | 
41 | Cc1nc(C)c(C(=O)Nc2ccc(F)c(-c3cn4cc(-c5cnc(C(C)C)cn5)cnc4n3)c2)o1 [Compound 446] |  |  |  |  | 161 nM | 122 nM | 146 nM | 33 nM | 
42 | CCN(C)C(=O)Nc1ccc(F)c(-c2cn3cc(-c4ccccn4)cnc3n2)c1 [Compound 381] |  |  |  |  | 482 nM | 445 nM | 1440 nM | 392 nM | 
43 | Cc1ccc(C(=O)Nc2ccc(F)c(-c3cn4cc(NC(=O)OC(C)C)cnc4n3)c2)s1 [Compound 88] |  | 1170 nM | 19700 nM | 5370 nM |  |  |  |  | 1180 nM
